Data: patent US11272709B2, “Amidine substituted benzoyl derivatives useful as herbicides” (Syngenta Participations AG, priority 2018, dated 2022)

Tests used:
Type in all cases: in vivo
Details in all cases: evaluated after 13 days
[1] = system: Ipomoea hederacea (IPOHE); assay: Post-emergence herbicidal glasshouse test, Ipomoea hederacea (IPOHE)
Procedure, shortened: (§1)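 Plants sprayed 1 day (pre-emergence) or 8 days (post-emergence) after sowing, at 500 g/h unless indicated, in acetone/water (50:50) with 0.5% Tween 20. Glasshouse 24/16 °C, 14 h light, 65% humidity. Damage scored at 13 days on a five-point scale (5=80-100% to 1=0-19%).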

[2] = system: Amaranthus retoflexus (AMARE); assay: Pre-emergence herbicidal glasshouse test, Amaranthus retoflexus (AMARE)
Procedure, shortened: as §1

[3] = system: Abutilon theophrasti (ABUTH); assay: Pre-emergence herbicidal glasshouse test, Abutilon theophrasti (ABUTH)
Procedure, shortened: as §1

[4] = system: Setaria faberi (SETFA); assay: Post-emergence herbicidal glasshouse test, Setaria faberi (SETFA)
Procedure, shortened: as §1

[5] = system: Echinochloa crus-galli (ECHCG); assay: Post-emergence herbicidal glasshouse test, Echinochloa crus-galli (ECHCG)
Procedure, shortened: as §1

[6] = system: Ipomoea hederacea (IPOHE); assay: Pre-emergence herbicidal glasshouse test, Ipomoea hederacea (IPOHE)
Procedure, shortened: as §1

[7] = system: Abutilon theophrasti (ABUTH); assay: Post-emergence herbicidal glasshouse test, Abutilon theophrasti (ABUTH)
Procedure, shortened: as §1

[8] = system: Amaranthus retoflexus (AMARE); assay: Post-emergence herbicidal glasshouse test, Amaranthus retoflexus (AMARE)
Procedure, shortened: as §1

[9] = system: Setaria faberi (SETFA); assay: Pre-emergence herbicidal glasshouse test, Setaria faberi (SETFA)
Procedure, shortened: as §1

[10] = system: Echinochloa crus-galli (ECHCG); assay: Pre-emergence herbicidal glasshouse test, Echinochloa crus-galli (ECHCG)
Procedure, shortened: as §1

Compound	POST Application IPOHE, percentage damage (five point scale) ([1]; 500 g/h)	PRE Application AMARE, percentage damage (five point scale) ([2]; 500 g/h)	PRE Application ABUTH, percentage damage (five point scale) ([3]; 500 g/h)	POST Application SETFA, percentage damage (five point scale) ([4]; 500 g/h)	POST Application ECHCG, percentage damage (five point scale) ([5]; 500 g/h)	PRE Application IPOHE, percentage damage (five point scale) ([6]; 500 g/h)	POST Application ABUTH, percentage damage (five point scale) ([7]; 500 g/h)	POST Application AMARE, percentage damage (five point scale) ([8]; 500 g/h)	PRE Application SETFA, percentage damage (five point scale) ([9]; 500 g/h)	PRE Application ECHCG, percentage damage (five point scale) ([10]; 500 g/h)	POST Application IPOHE, percentage damage (five point scale) ([1]; applied at 250 g/ha)	PRE Application AMARE, percentage damage (five point scale) ([2]; applied at 250 g/ha)	PRE Application ABUTH, percentage damage (five point scale) ([3]; applied at 250 g/ha)	POST Application SETFA, percentage damage (five point scale) ([4]; applied at 250 g/ha)	POST Application ECHCG, percentage damage (five point scale) ([5]; applied at 250 g/ha)	PRE Application IPOHE, percentage damage (five point scale) ([6]; applied at 250 g/ha)	POST Application ABUTH, percentage damage (five point scale) ([7]; applied at 250 g/ha)	POST Application AMARE, percentage damage (five point scale) ([8]; applied at 250 g/ha)	PRE Application SETFA, percentage damage (five point scale) ([9]; applied at 250 g/ha)	PRE Application ECHCG, percentage damage (five point scale) ([10]; applied at 250 g/ha)
CN(/C=N/c1c(C(F)(F)F)ccc(C(=O)Nc2nnnn2C)c1Cl)CC(F)(F)F [Compound 1.130, 2-chloro-N-(1-methyltetrazol-5-yl)-3-[(E)-[methyl(2,2,2-trifluoroethyl)amino]methyleneamino]-4-(trifluoromethyl)benzamide]	5 (5=80-100%)	5 (5=80-100%)	5 (5=80-100%)	5 (5=80-100%)	5 (5=80-100%)	5 (5=80-100%)	5 (5=80-100%)	5 (5=80-100%)	5 (5=80-100%)	5 (5=80-100%)										
COCCn1nnnc1NC(=O)c1ccc(S(C)(=O)=O)c(N=CN(C)C)c1C [Compound 7.003]	5 (5=80-100%)	5 (5=80-100%)	5 (5=80-100%)	5 (5=80-100%)	5 (5=80-100%)	5 (5=80-100%)	5 (5=80-100%)	5 (5=80-100%)	5 (5=80-100%)	5 (5=80-100%)										
Cc1nnc(NC(=O)c2ccc(S(C)(=O)=O)c(N=CN(C)CC(F)(F)F)c2C)o1 [Compound 2.143]	5 (5=80-100%)	5 (5=80-100%)	5 (5=80-100%)	5 (5=80-100%)	5 (5=80-100%)	5 (5=80-100%)	5 (5=80-100%)	5 (5=80-100%)	5 (5=80-100%)	5 (5=80-100%)										
Cc1nnc(NC(=O)c2ccc(C(F)(F)F)c(N=CN(C)c3ccccc3)c2Cl)o1 [Compound 2.131]	3 (3=40-59%)	5 (5=80-100%)	3 (3=40-59%)	5 (5=80-100%)	5 (5=80-100%)	2 (2=20-39%)	4 (4=60-79%)	5 (5=80-100%)	5 (5=80-100%)	5 (5=80-100%)										
CN(C=Nc1c(S(C)(=O)=O)ccc(C(=O)Nc2nnnn2C)c1Cl)CC(F)(F)F [Compound 1.142]											5 (5=80-100%)	5 (5=80-100%)	5 (5=80-100%)	5 (5=80-100%)	5 (5=80-100%)	4 (4=60-79%)	5 (5=80-100%)	5 (5=80-100%)	5 (5=80-100%)	5 (5=80-100%)
Cc1nnc(NC(=O)c2ccc(C(F)(F)F)c(/N=C/N(C)C)c2Cl)o1 [Compound 2.049, 2-chloro-3-[(E)-dimethylaminomethyleneamino]-N-(5-methyl-1,3,4-oxadiazol-2-yl)-4-(trifluoromethyl)benzamide]	5 (5=80-100%)	5 (5=80-100%)	5 (5=80-100%)	5 (5=80-100%)	5 (5=80-100%)	5 (5=80-100%)	5 (5=80-100%)	5 (5=80-100%)	5 (5=80-100%)	5 (5=80-100%)										
Cn1nnnc1NC(=O)c1ccc(C(F)(F)F)c(N=CN2CCOCC2)c1Cl [Compound 1.135]											5 (5=80-100%)	5 (5=80-100%)	5 (5=80-100%)	5 (5=80-100%)	3 (3=40-59%)	5 (5=80-100%)	5 (5=80-100%)	5 (5=80-100%)	5 (5=80-100%)	5 (5=80-100%)
Cc1c(C(=O)Nc2nnnn2C)ccc(C(F)(F)F)c1N=CN(C)C [Compound 1.017]	5 (5=80-100%)	5 (5=80-100%)	5 (5=80-100%)	5 (5=80-100%)	5 (5=80-100%)	5 (5=80-100%)	5 (5=80-100%)	5 (5=80-100%)	5 (5=80-100%)	5 (5=80-100%)										
CC(=Nc1c(C(F)(F)F)ccc(C(=O)Nc2nnnn2C)c1Cl)N(C)C [Compound 1.148]	4 (4=60-79%)	5 (5=80-100%)	5 (5=80-100%)	5 (5=80-100%)	5 (5=80-100%)	5 (5=80-100%)	4 (4=60-79%)	5 (5=80-100%)	5 (5=80-100%)	5 (5=80-100%)										
CN(C)C=Nc1c(C(F)(F)F)ccc(C(=O)C2=C(O)CCCC2=O)c1Cl [Compound 3.049]	5 (5=80-100%)	5 (5=80-100%)	5 (5=80-100%)	5 (5=80-100%)	5 (5=80-100%)	5 (5=80-100%)	5 (5=80-100%)	5 (5=80-100%)	5 (5=80-100%)	5 (5=80-100%)										
Cc1nnc(NC(=O)c2ccc(S(C)(=O)=O)c(N=CN(C)C(C)C)c2C)o1 [Compound 2.144]	4 (4=60-79%)	5 (5=80-100%)	5 (5=80-100%)	5 (5=80-100%)	5 (5=80-100%)	3 (3=40-59%)	5 (5=80-100%)	5 (5=80-100%)	5 (5=80-100%)	5 (5=80-100%)										
Cc1nnc(NC(=O)c2ccc(C(F)(F)F)c(N=CN3CCCC3)c2Cl)o1 [Compound 2.132]	5 (5=80-100%)	5 (5=80-100%)	5 (5=80-100%)	5 (5=80-100%)	5 (5=80-100%)	5 (5=80-100%)	5 (5=80-100%)	5 (5=80-100%)	5 (5=80-100%)	5 (5=80-100%)										
CN(C)C=Nc1c(S(C)(=O)=O)ccc(C(=O)C2=C(O)CCCC2=O)c1Cl [Compound 3.057]	5 (5=80-100%)	5 (5=80-100%)	5 (5=80-100%)	5 (5=80-100%)	5 (5=80-100%)	5 (5=80-100%)	5 (5=80-100%)	5 (5=80-100%)	5 (5=80-100%)	5 (5=80-100%)										
